{"source": "ChEMBL document CHEMBL5226326", "about": "“Discovery of 1-Benzoyl 4-Phenoxypiperidines as Small-Molecule Inhibitors of the β-Catenin/B-Cell Lymphoma 9 Protein-Protein Interaction” (J Med Chem, 2021)", "key": {"[1]": {"biological_target": "T1, beta-catenin-B-cell lymphoma 9 protein complex (Homo sapiens, UniProt P35222)", "T1 sequence (P35222 whole entry)": "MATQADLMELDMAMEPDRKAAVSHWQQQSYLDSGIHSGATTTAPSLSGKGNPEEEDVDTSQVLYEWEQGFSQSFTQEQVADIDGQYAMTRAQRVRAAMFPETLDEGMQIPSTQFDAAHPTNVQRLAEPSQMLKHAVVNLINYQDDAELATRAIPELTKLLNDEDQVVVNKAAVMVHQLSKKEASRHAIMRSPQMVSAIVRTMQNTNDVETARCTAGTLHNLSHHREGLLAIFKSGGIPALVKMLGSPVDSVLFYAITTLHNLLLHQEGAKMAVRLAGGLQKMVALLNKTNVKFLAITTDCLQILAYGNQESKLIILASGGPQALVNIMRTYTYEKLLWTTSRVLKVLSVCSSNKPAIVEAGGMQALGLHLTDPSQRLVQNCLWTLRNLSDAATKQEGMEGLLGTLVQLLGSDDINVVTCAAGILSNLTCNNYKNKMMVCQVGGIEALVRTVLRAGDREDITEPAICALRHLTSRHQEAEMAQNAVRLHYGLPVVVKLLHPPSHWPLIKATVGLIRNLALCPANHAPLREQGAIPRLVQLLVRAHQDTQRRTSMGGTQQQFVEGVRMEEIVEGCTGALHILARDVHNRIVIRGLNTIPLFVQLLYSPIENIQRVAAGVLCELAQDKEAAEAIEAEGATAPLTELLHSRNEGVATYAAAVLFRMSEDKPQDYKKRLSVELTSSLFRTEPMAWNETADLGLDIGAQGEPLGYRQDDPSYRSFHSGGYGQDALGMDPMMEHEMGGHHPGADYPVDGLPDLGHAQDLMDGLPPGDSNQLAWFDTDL", "T1 sequence (O00512 whole entry)": "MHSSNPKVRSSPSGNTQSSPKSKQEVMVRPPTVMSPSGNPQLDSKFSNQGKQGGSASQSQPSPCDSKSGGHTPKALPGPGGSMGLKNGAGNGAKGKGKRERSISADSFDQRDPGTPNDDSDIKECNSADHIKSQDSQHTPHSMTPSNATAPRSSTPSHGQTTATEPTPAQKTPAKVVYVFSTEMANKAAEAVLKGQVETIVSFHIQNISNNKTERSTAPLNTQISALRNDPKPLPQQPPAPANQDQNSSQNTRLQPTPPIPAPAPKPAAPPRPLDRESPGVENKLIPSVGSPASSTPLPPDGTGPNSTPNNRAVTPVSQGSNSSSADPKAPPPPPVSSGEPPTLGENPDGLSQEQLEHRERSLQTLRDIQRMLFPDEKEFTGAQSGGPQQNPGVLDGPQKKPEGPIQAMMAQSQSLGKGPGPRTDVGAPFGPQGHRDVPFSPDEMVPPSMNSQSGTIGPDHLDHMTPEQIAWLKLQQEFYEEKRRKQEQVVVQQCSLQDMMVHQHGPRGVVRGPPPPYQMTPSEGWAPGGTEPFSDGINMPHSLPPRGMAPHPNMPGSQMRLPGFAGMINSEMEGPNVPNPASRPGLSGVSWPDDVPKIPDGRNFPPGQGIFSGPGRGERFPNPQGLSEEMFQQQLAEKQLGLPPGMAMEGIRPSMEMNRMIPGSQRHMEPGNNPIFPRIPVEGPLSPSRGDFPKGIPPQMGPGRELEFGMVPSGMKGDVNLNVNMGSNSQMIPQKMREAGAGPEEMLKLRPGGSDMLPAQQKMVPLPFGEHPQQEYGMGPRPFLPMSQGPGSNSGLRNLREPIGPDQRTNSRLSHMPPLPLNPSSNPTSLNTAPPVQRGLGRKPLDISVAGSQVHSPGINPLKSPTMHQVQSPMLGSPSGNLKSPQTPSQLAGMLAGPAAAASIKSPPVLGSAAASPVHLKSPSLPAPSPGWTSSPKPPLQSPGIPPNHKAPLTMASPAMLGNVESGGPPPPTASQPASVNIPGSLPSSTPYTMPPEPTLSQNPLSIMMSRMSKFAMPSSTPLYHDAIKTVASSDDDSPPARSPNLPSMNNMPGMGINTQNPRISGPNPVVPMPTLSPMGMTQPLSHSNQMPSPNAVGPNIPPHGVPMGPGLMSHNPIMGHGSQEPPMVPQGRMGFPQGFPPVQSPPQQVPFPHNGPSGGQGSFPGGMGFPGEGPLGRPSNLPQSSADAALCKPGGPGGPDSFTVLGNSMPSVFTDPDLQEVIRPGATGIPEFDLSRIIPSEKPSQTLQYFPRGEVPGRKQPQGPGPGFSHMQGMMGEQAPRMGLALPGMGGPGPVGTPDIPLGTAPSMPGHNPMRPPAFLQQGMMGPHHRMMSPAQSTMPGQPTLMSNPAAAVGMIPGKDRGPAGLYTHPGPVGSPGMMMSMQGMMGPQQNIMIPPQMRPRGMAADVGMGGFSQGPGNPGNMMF", "experiment": "Inhibition of full length beta-catenin (1 to 781 residues) (unknown origin) expressed in Escherichia coli BL21 (DE3)/N-terminal biotinylated human BCL9 HD2 (350 to 375 residues) protein-protein interaction incubated for 1 hr by Alphascreen assay"}, "[2]": {"biological_target": "T1, beta-catenin-B-cell lymphoma 9 protein complex", "experiment": "Inhibition of full length beta-catenin (1 to 781 residues) (unknown origin) expressed in Escherichia coli BL21 (DE3)/N-terminal biotinylated human BCL9 HD2 (350 to 375 residues) protein-protein interaction assessed as inhibition constant incubated for 1 hr by Alphascreen assay"}, "[3]": {"experiment": "Inhibition of Wnt/beta-catenin transactivation signalling in human SW480 cells transfected with renilla luciferase and TOPFlash reporter gene incubated for 24 hrs by dual-luciferase assay", "assay_type": "cell-based", "settings": "SW480, 24 h"}, "[4]": {"experiment": "Inhibition of Wnt/beta-catenin D145A/E155A mutant transactivation signalling in human HEK293 cells transfected with TOPFlash reporter gene incubated for 24 hrs by TOPFlash luciferase assay", "assay_type": "cell-based", "settings": "HEK293, 24 h"}, "MDA-MB-468": {"system": "MDA-MB-468", "experiment": "Antiproliferative activity against beta-catenin signalling overexpressing human MDA-MB-468 cells assessed as reduction in cell growth incubated for 72 hrs by MTS assay", "assay_type": "functional, cell-based", "settings": "MDA-MB-468, 72 h"}, "[5]": {"experiment": "Cytotoxicity against human MCF-10A cells assessed as reduction in cell growth incubated for 72 hrs by MTS assay", "assay_type": "toxicity, cell-based"}}}
{"smiles": "CC(C)(C)C1CCC(c2cc(C(=O)N3CCC(Oc4cc(N5CCNCC5)ccc4C#N)CC3)ccc2O[C@H]2CCNC2)CC1.Cl.Cl", "note": "(mixture of isomers; cis)", "values": [{"measurement": "IC50", "setting": "[1]", "value": 1.2, "unit": "µM"}, {"measurement": "Ki", "setting": "[2]", "value": 0.96, "unit": "µM"}, {"measurement": "IC50", "setting": "[3]", "value": 2.6, "unit": "µM"}, {"measurement": "IC50", "setting": "[4]", "value": 24, "unit": "µM"}, {"measurement": "IC50", "setting": "MDA-MB-468", "value": 3.9, "unit": "µM"}, {"measurement": "IC50 at 72 h", "setting": "[5]", "value": 18, "unit": "µM"}]}
